SMILES strings stand for the structures.

The source of these data is patent publication US20230390319A1, “INTERFERON GENE STIMULATOR COMPOSITION COMPRISING INDOLIZINE DERIVATIVE AS ACTIVE INGREDIENT” (AJOU UNIVERSITY INDUSTRY-ACADEMIC COOPERATION FOUNDATION, priority 2020, published 2023).

Series [1] deals with THP-1 cells. The series can be described thus: Cell viability assay (CellTiter Clo) in THP-1 cells. The conditions noted are these: THP-1 cells, 20 μM of each compound, co-treated with cGAMP (1 μg/ml). Type of series: cell-based, Human. On the procedure: (§1) Human monocytic THP-1 wild-type (WT) and STING knockout (KO) cell lines were obtained from InvivoGen. Cells were cultured in 1×RPMI 1640 medium containing 10% fetal bovine serum (FBS, Hyclone), 2.05 mM L-glutamine (Hyclone) and 1% penicillin (Corning) in a humidified incubator at 37° C. under 5% CO2.
Cells were analyzed using CellTiter Clo (CTG, Promega). […] was measured using a TECAN micro plate reader SPARK. Results were normalized to DMSO control.
(§2) THP-1 cells were co-treated with each of 86 indolizine derivatives and a very small amount of cGAMP (1 μg/ml), the immune response of the THP-1 cells was examined by ISRE reporter assay, and the cytotoxicity of co-treatment was also evaluated (Table 1). All results were compared by normalization to the reporter assay results obtained by treatment with cGAMP alone. […] Thus, Compound 42 was used in subsequent experiments.

Series [2] deals with ISRE reporter signal. The series can be described thus: ISRE luciferase reporter assay, THP-1 cells co-treated with compound and cGAMP. The conditions noted are these: THP-1 cells, 20 μM of each compound, co-treated with cGAMP (1 μg/ml), 24 hours. Type of series: cell-based, Human. The protocol: as §1
To confirm immune responses, THP-1 cells were placed in 384-well plates (Grenier), and treated with each compound and cGAMP (1 μg/ml), and after 24 hours, ISRE activity was analyzed. QUANTI-Luc assay (InvivoGen) was performed using the cell culture supernatant to confirm the luciferase reporter gene signal. Fluorescent signals were measured using a TECAN micro plate reader SPARK, and the results were normalized to DMSO control.
as §2
(In a reporter assay the amount or activity of a reporter protein is the signal.)

As to `COc1ccc(C(=O)c2cc(-c3ccc(N(C)C)cc3)c3cc(C(C)=O)ccn23)cc1` [Compound 35], the Normalized cell viability in series [1] is listed as 1.26. Also, the “Normalized RU (relative unit of ISRE reporter signal)” value in series [2] worked out at 2.22.

As for `CCN(CC)c1ccc(C(=O)c2cc(-c3ccc(C(F)(F)F)cc3)c3cc(C(C)=O)ccn23)cc1` [Compound 36], in series [1], the Normalized cell viability was determined as 1.27. In addition, in series [2], the “Normalized RU (relative unit of ISRE reporter signal)” value turned out to be 3.37.

With `CCN(CC)c1ccc(C(=O)c2cc(-c3ccc(C(C)=O)cc3)c3cc(C(C)=O)ccn23)cc1` [Compound 37], the Normalized cell viability in series [1] is on record as 1.25. For the same molecule, the “Normalized RU (relative unit of ISRE reporter signal)” value in series [2] amounted to 1.62.

In the case of `CCN(CC)c1ccc(C(=O)c2cc(-c3ccccc3)c3cc(C(C)=O)ccn23)cc1` [Compound 38], the Normalized cell viability in series [1] is 1.34. In series [2], the “Normalized RU (relative unit of ISRE reporter signal)” value stood at 1.77.

For the molecule `CCN(CC)c1ccc(C(=O)c2cc(-c3ccc(OC)cc3)c3cc(C(C)=O)ccn23)cc1` [Compound 39], in series [1], the Normalized cell viability is given as 1.18. Besides, in series [2], the “Normalized RU (relative unit of ISRE reporter signal)” value is listed as 1.47.

With `CCN(CC)c1ccc(C(=O)c2cc(-c3ccc(N(C)C)cc3)c3cc(C(C)=O)ccn23)cc1` [Compound 40], the Normalized cell viability in series [1] is listed as 1.17. In series [2], the “Normalized RU (relative unit of ISRE reporter signal)” value is reported as 1.09.

Consider `O=C(c1ccc(C(F)(F)F)cc1)c1cc(-c2ccc(C(F)(F)F)cc2)c2ccccn12` [Compound 41], for which the Normalized cell viability in series [1] is 1.25. Also, the “Normalized RU (relative unit of ISRE reporter signal)” value in series [2] came to 3.85.

Turning to `O=C(c1ccc(C(F)(F)F)cc1)c1cc(-c2ccccc2)c2ccccn12` [Compound 43], the Normalized cell viability in series [1] was 1.13. In series [2], the “Normalized RU (relative unit of ISRE reporter signal)” value is listed as 1.08.

As to `COc1ccc(-c2cc(C(=O)c3ccc(C(F)(F)F)cc3)n3ccccc23)cc1` [Compound 44], the Normalized cell viability in series [1] worked out at 1.24. Besides, in series [2], the “Normalized RU (relative unit of ISRE reporter signal)” value is given as 0.89.

Regarding `CN(C)c1ccc(-c2cc(C(=O)c3ccc(C(F)(F)F)cc3)n3ccccc23)cc1` [Compound 45], the Normalized cell viability in series [1] is 1.22. In series [2], the “Normalized RU (relative unit of ISRE reporter signal)” value is 1.28.

Turning to `O=C(c1ccccc1)c1cc(-c2ccc(C(F)(F)F)cc2)c2ccccn12` [Compound 46], in series [1], the Normalized cell viability was determined as 1.25. In series [2], the “Normalized RU (relative unit of ISRE reporter signal)” value came out at 1.08.

Turning to `CC(=O)c1ccc(-c2cc(C(=O)c3ccccc3)n3ccccc23)cc1` [Compound 47], in series [1], the Normalized cell viability is 1.12. The “Normalized RU (relative unit of ISRE reporter signal)” value in series [2] was found to be 1.15.

For `O=C(c1ccccc1)c1cc(-c2ccccc2)c2ccccn12` [Compound 48], in series [1], the Normalized cell viability is given as 1.18. In addition, in series [2], the “Normalized RU (relative unit of ISRE reporter signal)” value is reported as 1.37.

`COc1ccc(-c2cc(C(=O)c3ccccc3)n3ccccc23)cc1` [Compound 49]: the Normalized cell viability in series [1] is recorded as 1.21. For the same molecule, the “Normalized RU (relative unit of ISRE reporter signal)” value in series [2] is 1.17.

Consider `CN(C)c1ccc(-c2cc(C(=O)c3ccccc3)n3ccccc23)cc1` [Compound 50], for which the Normalized cell viability in series [1] is 1.30. In series [2], the “Normalized RU (relative unit of ISRE reporter signal)” value is on record as 1.18.

In the case of `COc1ccc(C(=O)c2cc(-c3ccc(C(F)(F)F)cc3)c3ccccn23)cc1` [Compound 51], the Normalized cell viability in series [1] turned out to be 1.32. Moreover, the “Normalized RU (relative unit of ISRE reporter signal)” value in series [2] is 6.08.

As to `COc1ccc(C(=O)c2cc(-c3ccc(C(C)=O)cc3)c3ccccn23)cc1` [Compound 52], the Normalized cell viability in series [1] came out at 1.15. Also, the “Normalized RU (relative unit of ISRE reporter signal)” value in series [2] is given as 1.61.

Turning to `COc1ccc(C(=O)c2cc(-c3ccccc3)c3ccccn23)cc1` [Compound 53], in series [1], the Normalized cell viability is 1.18. The “Normalized RU (relative unit of ISRE reporter signal)” value in series [2] amounted to 1.30.

For the molecule `COc1ccc(C(=O)c2cc(-c3ccc(OC)cc3)c3ccccn23)cc1` [Compound 54], in series [1], the Normalized cell viability came out at 1.16. Moreover, the “Normalized RU (relative unit of ISRE reporter signal)” value in series [2] worked out at 1.51.

`COc1ccc(C(=O)c2cc(-c3ccc(N(C)C)cc3)c3ccccn23)cc1` [Compound 55]: the Normalized cell viability in series [1] is 1.24. Besides, the “Normalized RU (relative unit of ISRE reporter signal)” value in series [2] worked out at 1.65.

For `CCN(CC)c1ccc(C(=O)c2cc(-c3ccc(C(F)(F)F)cc3)c3ccccn23)cc1` [Compound 56], the Normalized cell viability in series [1] was 1.23. The “Normalized RU (relative unit of ISRE reporter signal)” value in series [2] is recorded as 1.40.

With `CCN(CC)c1ccc(C(=O)c2cc(-c3ccc(C(C)=O)cc3)c3ccccn23)cc1` [Compound 57], the Normalized cell viability in series [1] is on record as 1.40. In series [2], the “Normalized RU (relative unit of ISRE reporter signal)” value was determined as 0.93.

Consider `CCN(CC)c1ccc(C(=O)c2cc(-c3ccccc3)c3ccccn23)cc1` [Compound 58], for which the Normalized cell viability in series [1] was found to be 1.01. Also, in series [2], the “Normalized RU (relative unit of ISRE reporter signal)” value is 0.66.

Turning to `CCN(CC)c1ccc(C(=O)c2cc(-c3ccc(OC)cc3)c3ccccn23)cc1` [Compound 59], in series [1], the Normalized cell viability stood at 1.09. Also, the “Normalized RU (relative unit of ISRE reporter signal)” value in series [2] came out at 1.27.

`CCN(CC)c1ccc(C(=O)c2cc(-c3ccc(N(C)C)cc3)c3ccccn23)cc1` [Compound 60]: the Normalized cell viability in series [1] is 1.28. In series [2], the “Normalized RU (relative unit of ISRE reporter signal)” value amounted to 1.25.

In the case of `CC(=O)c1ccn2c(C(=O)c3ccccc3)cc(-c3ccncc3)c2c1` [Compound 61], the Normalized cell viability in series [1] was determined as 1.11. The “Normalized RU (relative unit of ISRE reporter signal)” value in series [2] was determined as 1.98.

On to `CC(=O)c1ccn2c(C(=O)c3ccccc3)cc(-c3ccc(C)c(N)c3)c2c1` [Compound 62], for which the Normalized cell viability in series [1] is 1.23. The “Normalized RU (relative unit of ISRE reporter signal)” value in series [2] was 2.86.

For `CC(=O)c1ccn2c(C(=O)c3ccccc3)cc(-c3ccc(N)cc3)c2c1` [Compound 63], the Normalized cell viability in series [1] was 0.98. Moreover, the “Normalized RU (relative unit of ISRE reporter signal)” value in series [2] was found to be 2.08.

Regarding `CCN(CC)c1ccc(-c2cc(C(=O)c3ccccc3)n3ccc(C(C)=O)cc23)cc1` [Compound 64], the Normalized cell viability in series [1] is reported as 1.24. The “Normalized RU (relative unit of ISRE reporter signal)” value in series [2] is 1.13.

On to `CCCN(CCC)c1ccc(-c2cc(C(=O)c3ccccc3)n3ccc(C(C)=O)cc23)cc1` [Compound 65], for which the Normalized cell viability in series [1] is recorded as 1.25. For the same molecule, in series [2], the “Normalized RU (relative unit of ISRE reporter signal)” value came to 1.13.

On to `CC(=O)c1ccn2c(C(=O)c3ccccc3)cc(-c3ccc(C(=O)O)cc3)c2c1` [Compound 66], for which the Normalized cell viability in series [1] stood at 1.32. For the same molecule, the “Normalized RU (relative unit of ISRE reporter signal)” value in series [2] is listed as 1.16.

For the molecule `O=C(c1ccccc1)c1cc(-c2ccncc2)c2ccccn12` [Compound 67], in series [1], the Normalized cell viability is reported as 1.34. Moreover, the “Normalized RU (relative unit of ISRE reporter signal)” value in series [2] is recorded as 2.03.

For the molecule `Cc1ccc(-c2cc(C(=O)c3ccccc3)n3ccccc23)cc1N` [Compound 68], in series [1], the Normalized cell viability is reported as 1.17. The “Normalized RU (relative unit of ISRE reporter signal)” value in series [2] is listed as 3.16.

As for `Nc1ccc(-c2cc(C(=O)c3ccccc3)n3ccccc23)cc1` [Compound 69], in series [1], the Normalized cell viability is 1.19. In addition, the “Normalized RU (relative unit of ISRE reporter signal)” value in series [2] is reported as 2.47.

As for `CCN(CC)c1ccc(-c2cc(C(=O)c3ccccc3)n3ccccc23)cc1` [Compound 70], the Normalized cell viability in series [1] turned out to be 1.19. Moreover, the “Normalized RU (relative unit of ISRE reporter signal)” value in series [2] was found to be 1.21.

Consider `CCCN(CCC)c1ccc(-c2cc(C(=O)c3ccccc3)n3ccccc23)cc1` [Compound 71], for which the Normalized cell viability in series [1] came to 1.01. For the same molecule, the “Normalized RU (relative unit of ISRE reporter signal)” value in series [2] was determined as 0.96.

`CC(=O)c1cc(-c2ccc(C(F)(F)F)cc2)c2cc(C(F)(F)F)ccn12` [Compound 73]: the Normalized cell viability in series [1] came out at 0.78. In addition, the “Normalized RU (relative unit of ISRE reporter signal)” value in series [2] is 1.54.

For `CC(=O)c1ccc(-c2cc(C(C)=O)n3ccc(C(F)(F)F)cc23)cc1` [Compound 74], the Normalized cell viability in series [1] came out at 0.75. Besides, the “Normalized RU (relative unit of ISRE reporter signal)” value in series [2] was 2.06.

`CC(=O)c1cc(-c2ccccc2)c2cc(C(F)(F)F)ccn12` [Compound 75]: in series [1], the Normalized cell viability is on record as 1.25. Moreover, the “Normalized RU (relative unit of ISRE reporter signal)” value in series [2] worked out at 1.76.

Take `COc1ccc(-c2cc(C(C)=O)n3ccc(C(F)(F)F)cc23)cc1` [Compound 76]: the Normalized cell viability in series [1] amounted to 1.14. In addition, the “Normalized RU (relative unit of ISRE reporter signal)” value in series [2] is on record as 2.02.

As to `CC(=O)c1cc(-c2ccc(N(C)C)cc2)c2cc(C(F)(F)F)ccn12` [Compound 77], in series [1], the Normalized cell viability was 1.28. The “Normalized RU (relative unit of ISRE reporter signal)” value in series [2] worked out at 1.24.

As for `CC(=O)c1ccn2c(C(C)=O)cc(-c3ccc(C(F)(F)F)cc3)c2c1` [Compound 78], the Normalized cell viability in series [1] came to 0.46. Also, the “Normalized RU (relative unit of ISRE reporter signal)” value in series [2] came to 2.43.

For the molecule `CC(=O)c1ccc(-c2cc(C(C)=O)n3ccc(C(C)=O)cc23)cc1` [Compound 79], the Normalized cell viability in series [1] amounted to 1.19. Further, in series [2], the “Normalized RU (relative unit of ISRE reporter signal)” value was determined as 3.80.

In the case of `CC(=O)c1ccn2c(C(C)=O)cc(-c3ccccc3)c2c1` [Compound 80], the Normalized cell viability in series [1] worked out at 1.22. For the same molecule, the “Normalized RU (relative unit of ISRE reporter signal)” value in series [2] is given as 1.98.
